Entries after “also recorded” stand apart in the source; their conditions may differ. Where no end group is shown, it is not given here.

Assay [1] has as its system biotinylated monoclonal antibody specific for DAEFRH (natural N-terminal Aβ42 sequence). Kind of assay: Inhibition assay for additional mimotopes (competition ELISA), Example 4 (FIGS. 4 and 5). The format is binding, mice. As to conditions: for inhibition of binding of the monoclonal antibody to the original epitope (in words) / IC50 of inhibition of monoclonal antibody recognition of the original epitope: FIGS. 4 and 5; for Inhibitory capacity of mimotopes (Table 2): summary grade: strong, intermediate, weak, none; for IC50 of inhibition of monoclonal antibody recognition of the original epitope: plate-bound DAEFRH-BSA 0.1 μg/ml, peptides at different concentrations, 20 min, 37° C. The method, then: FIGS. 4 and 5 describe the results of inhibition assays performed with mimotope peptides included in and obtained from the 5 libraries (as described). The mimotope peptides compete with the original epitope for recognition by the monoclonal antibody. Original epitope and mimotope peptides contain an additional C at the C-terminus (position 7) for coupling to a protein carrier (if desired).
(§1) After blocking with PBS/BSA 1% (200 μl/well, 12 h, 4° C.), the plates are washed 3× times with PBS/Tween. Then, biotinylated monoclonal antibody (1:2000, 50 μl/well) and peptides (50 μl/well) at different concentrations are added for 20 min. at 37° C. The plates are washed 3× times with PBS/Tween and are incubated with horseradish peroxidase (HRP)-labeled streptavidin (100 μl/well, 30 min, RT). The plates are washed 5× times with PBS/Tween and are incubated with ABTS H2O2 (0.1% w/v, 10 to 45 min) and the reaction is stopped with citric acid followed by photometric evaluation (wavelength 405 nm).

For assay [2] the test system is unchanged. Kind of assay: Inhibition assay (competition ELISA): mimotope peptides compete with plate-bound DAEFRH-BSA for the monoclonal antibody, Example 3 (FIGS. 2 and 3). The format is binding, mice. Conditions: for inhibition of binding of the monoclonal antibody to the original epitope (in words): peptides at 50 to 0.0005 μg/ml, FIGS. 2 and 3; for Inhibitory capacity of mimotopes (Table 1): summary grade: strong, intermediate, weak, none. On the procedure:
FIGS. 2 and 3 describe the results of inhibition assays performed with mimotope peptides included in and obtained from the 5 libraries (as described). The mimotope peptides compete with the original epitope for recognition by the monoclonal antibody. Original epitope and mimotope peptides contain an additional C at the C-terminus for coupling to a protein carrier (if desired).
as §1, with “50, 5, 0.5, 0.05, 0.005, and 0.0005 μg/ml” for “different concentrations”, “ABTS+H2O2” for “ABTS H2O2”

Consider `CC[C@H](C)[C@H](NC(=O)[C@H](CCCNC(=N)N)NC(=O)[C@H](CC(C)C)NC(=O)[C@H](CCC(=O)O)NC(=O)[C@H](CCCNC(=N)N)NC(=O)[C@@H](N)CC(=O)O)C(=O)N[C@@H](CS)C(=O)O` [Peptide 1235, DRELRI], for which, in assay [1], the “inhibition of binding of the monoclonal antibody to the original epitope (in words)” value (“inhibition of binding … (in words)” for short) is reported as “block epitope recognition” and the “Inhibitory capacity of mimotopes (Table 2)” value is listed as “strong”.
On the same counts, the results for `CC[C@H](C)[C@H](NC(=O)[C@H](CCCCN)NC(=O)[C@H](CC(C)C)NC(=O)[C@H](CCC(=O)O)NC(=O)[C@H](CCCCN)NC(=O)[C@@H](N)CC(=O)O)C(=O)N[C@@H](CS)C(=O)O` [Peptide 1236, DKELKI] are “block epitope recognition” and “weak”.
In the case of `CC[C@H](C)[C@H](NC(=O)[C@H](CCCCN)NC(=O)[C@H](CC(C)C)NC(=O)[C@H](CCC(=O)O)NC(=O)[C@H](CCCNC(=N)N)NC(=O)[C@@H](N)CC(=O)O)C(=O)N[C@@H](CS)C(=O)O` [Peptide 1237, DRELKI], in assay [1], the “inhibition of binding … (in words)” value is “block epitope recognition” and the “Inhibitory capacity of mimotopes (Table 2)” value was “weak”.
Take `N=C(N)NCCC[C@H](NC(=O)[C@H](Cc1ccccc1)NC(=O)[C@H](CCC(=O)O)NC(=O)[C@H](Cc1ccc(O)cc1)NC(=O)[C@@H](N)CCC(=O)O)C(=O)NCC(=O)N[C@@H](CS)C(=O)O` [Peptide 1239, EYEFRG]: in assay [1], the “inhibition of binding … (in words)” value is reported as “block epitope recognition”, the “IC50 of inhibition of monoclonal antibody recognition of the original epitope” value was “more than 0.5 μg/ml” and the “Inhibitory capacity of mimotopes (Table 2)” value is given as “intermediate”.
On to `C[C@H](NC(=O)[C@H](CC(=O)O)NC(=O)[C@H](CCCNC(=N)N)NC(=O)[C@H](Cc1ccccc1)NC(=O)[C@H](CCC(=O)O)NC(=O)[C@H](Cc1c[nH]c2ccccc12)NC(=O)[C@@H](N)CC(=O)O)C(=O)N[C@@H](CS)C(=O)O` [Peptide 1241, DWEFRDA], for which, in assay [1], the “inhibition of binding … (in words)” value is “block epitope recognition” and the “Inhibitory capacity of mimotopes (Table 2)” value is recorded as “strong”.
`CC[C@H](C)[C@H](NC(=O)[C@H](CCCNC(=N)N)NC(=O)[C@H](CC(C)C)NC(=O)[C@H](CCC(=O)O)NC(=O)[C@H](CCCCN)NC(=O)[C@@H](N)CC(=O)O)C(=O)N[C@@H](CS)C(=O)O` [Peptide 3001, DKELRI]: in assay [2], the “inhibition of binding … (in words)” value is recorded as “block epitope recognition” and the “Inhibitory capacity of mimotopes (Table 1)” value was “strong”.
For `CC[C@H](C)[C@H](NC(=O)[C@H](CCCNC(=N)N)NC(=O)[C@H](CC(C)C)NC(=O)[C@H](CCC(=O)O)NC(=O)[C@H](Cc1c[nH]c2ccccc12)NC(=O)[C@@H](N)CC(=O)O)C(=O)N[C@@H](CS)C(=O)O` [Peptide 3002, DWELRI], in that order: “block epitope recognition” and “intermediate”.
`C[C@H](NC(=O)[C@@H](N)Cc1ccc(O)cc1)C(=O)N[C@@H](CCC(=O)O)C(=O)N[C@@H](Cc1ccccc1)C(=O)N[C@@H](CCCNC(=N)N)C(=O)NCC(=O)N[C@@H](CS)C(=O)O` [Peptide 3005, YAEFRG]: in assay [2], the “inhibition of binding … (in words)” value was “block epitope recognition” and the “Inhibitory capacity of mimotopes (Table 1)” value is on record as “intermediate”.
With `C[C@H](NC(=O)[C@@H](N)CCC(=O)O)C(=O)N[C@@H](CCC(=O)O)C(=O)N[C@@H](Cc1ccccc1)C(=O)N[C@@H](CCCNC(=N)N)C(=O)NCC(=O)N[C@@H](CS)C(=O)O` [Peptide 3006, EAEFRG], in assay [2], the “inhibition of binding … (in words)” value is “block epitope recognition” and the “Inhibitory capacity of mimotopes (Table 1)” value was “strong”.
With `N=C(N)NCCC[C@H](NC(=O)[C@H](Cc1ccccc1)NC(=O)[C@H](CCC(=O)O)NC(=O)[C@H](Cc1ccc(O)cc1)NC(=O)[C@@H](N)CC(=O)O)C(=O)NCC(=O)N[C@@H](CS)C(=O)O` [Peptide 3007, DYEFRG], in assay [2], the “inhibition of binding … (in words)” value is “block epitope recognition” and the “Inhibitory capacity of mimotopes (Table 1)” value was “strong”.
As to `CC(C)C[C@H](NC(=O)[C@@H](N)CCC(=O)O)C(=O)N[C@@H](CCC(=O)O)C(=O)N[C@@H](Cc1ccccc1)C(=O)N[C@@H](CCCNC(=N)N)C(=O)NCC(=O)N[C@@H](CS)C(=O)O` [Peptide 3008, ELEFRG], the “Inhibitory capacity of mimotopes (Table 1)” value in assay [2] is given as “weak”.
The same measure, in the same setting: then `N=C(N)NCCC[C@H](NC(=O)[C@H](Cc1ccccc1)NC(=O)[C@H](CCC(=O)O)NC(=O)[C@H](Cc1ccccc1)NC(=O)[C@@H](N)CO)C(=O)NCC(=O)N[C@@H](CS)C(=O)O` [Peptide 3009, SFEFRG], with “weak”.
Regarding `C[C@@H](O)[C@H](NC(=O)[C@H](CCCNC(=N)N)NC(=O)[C@H](Cc1ccccc1)NC(=O)[C@H](CCC(=O)O)NC(=O)[C@H](Cc1c[nH]c2ccccc12)NC(=O)[C@@H](N)CO)C(=O)N[C@@H](CS)C(=O)O` [Peptide 4002, SWEFRT], in assay [1], the “inhibition of binding … (in words)” value is “block epitope recognition”, the “IC50 of inhibition of monoclonal antibody recognition of the original epitope” value was “less than 0.4 μg/ml” and the “Inhibitory capacity of mimotopes (Table 2)” value is given as “strong”.
Regarding “DAEFRH (not fully specified (C-terminus)) [Peptide 1737, reference compound]”, the “inhibition of binding … (in words)” value in assay [1] and in assay [2] was “inhibits recognition by the monoclonal antibody; also recorded: can successfully compete” each time.
With DIGWRG [Peptide 3011], in assay [2], the “inhibition of binding … (in words)” value is reported as “not inhibitory at the concentrations tested” and the “Inhibitory capacity of mimotopes (Table 1)” value is “none”.
For DISFRG [Peptide 3010], in that order: “not inhibitory at the concentrations tested” and “none”.
For GREFRN [Peptide 4003], the “concentration at which the peptide is only inhibitory” value in assay [1] (FIG. 4) stood at 10 µg/mL. For the same molecule, in assay [1], the “inhibition of binding … (in words)” value is given as “block epitope recognition” and the “Inhibitory capacity of mimotopes (Table 2)” value was “weak”.
As for KKELRI [Peptide 1234], in assay [1], the “inhibition of binding … (in words)” value is listed as “hardly inhibitory at the concentrations tested” and the “Inhibitory capacity of mimotopes (Table 2)” value is reported as “none”.
For WHWSWR [Peptide 4004], in that order: “not able to inhibit binding of the monoclonal antibody to the original epitope” and “none”.
Regarding YREFFI [Peptide 3003], in assay [2], the “inhibition of binding … (in words)” value is “not able to inhibit binding of the monoclonal antibody to the original epitope” and the “Inhibitory capacity of mimotopes (Table 1)” value is given as “none”.
YREFRI [Peptide 3004]: the “concentration at which the peptide is only inhibitory” value in assay [2] (FIG. 2) came to 50 µg/mL. For the same molecule, in assay [2], the “inhibition of binding … (in words)” value was “block epitope recognition” and the “Inhibitory capacity of mimotopes (Table 1)” value is “weak”.
